The values that follow come from patent US20130324520A1, “RXRG MODULATORS FOR THE TREATMENT OF CANCER” (SLOAN-KETTERING INSTITUTE FOR CANCER RESEARCH, priority 2011, published 2013).

Series [1] deals with RB1 mutated retinoblastoma. Kind of series: RXRG ligands on retinoblastoma cell growth. In kind it is cell-based. As to the method: (§1) Colon, lung, pancreatic cancer, retinoblastoma and other cell lines were cultured in culture medium consisting of IMDM (Medium Lab, MSKCC, NY) with 10% FBS (SH3008803, HyClone, Thermo Scientific), 2 mM glutamine (Invitrogen), 55 μM beta-mercaptoethanol (Invitrogen), 1% Penicillin/streptomycin (Invitrogen), and 2.5 μg/ml Plasmocin (Invivogen), at 37° C. in a humidified incubator with 5% CO2. Melanoma cell lines were culture in RPMI with above additives.
(§2) Colon, lung, pancreatic, breast, prostate cancer cell lines and other cancer cell lines were cultured in 10 cm dishes or 24 well plates with complete IMDM or RPMI (for melanoma) with 30-50% confluence. […] DMSO was used for control. After 3-6 days treatment, cells were collected and counted with trypan blue. Dose-effectiveness curves were generated with series dilution of compounds in medium for treatment of cells.

The next series concerns RB177. Nature of the series: RXRG ligands on retinoblastoma cell growth. In kind it is cell-based. The method, then: as §1, §2
The subject of the next series is H1650. Kind of series: Drug treatment on cancer cell lines, cell counting. It is filed as cell-based. To be noted: EGFR mutated lung cancer. An excerpt: (§3) DMSO was used for control.
Series [2] has as its system H1975. Nature of the series: Drug treatment on cancer cell lines, cell counting. In kind it is cell-based. To be noted: EGFR mutated lung cancer.
Source text: as §3

A further series deals with H3255. Kind of series: Drug treatment on cancer cell lines, cell counting. In kind it is cell-based. To be noted: EGFR mutated lung cancer.
Source text: as §3

A further series deals with H820. Nature of the series: Drug treatment on cancer cell lines, cell counting. As to conditions: EGFR mutated lung cancer. It is filed as cell-based.
Source text: as §3

Another series concerns PC930201. Kind of series: Drug treatment on cancer cell lines, cell counting. In kind it is cell-based. To be noted: KRAS mutated pancreatic cancer (PC0201).
Source text: as §3

In series [3] the test system is PC931019. Kind of series: Drug treatment on cancer cell lines, cell counting. In kind it is cell-based. To be noted: for cell growth: KRAS mutated pancreatic cancer (PC1019); for growth inhibition, single agent / effect of combination with HX531 on growth: day 9; for growth inhibition, single agent: 6 uM HX531, 10 uM PD98059, 100 nM PD0325901; for effect of combination with HX531 on growth: MEK inhibitor plus 6 uM HX531.
Source text: as §3

The subject of another series is PC941102. Kind of series: Drug treatment on cancer cell lines, cell counting. In kind it is cell-based. As to conditions: KRAS mutated pancreatic cancer (PC1102).
Source text: as §3

Series [4] relates to EGFR and KRAS activated NSCLC, pancreatic, and colon cancers. Kind of series: Drug treatment on cancer cell lines, cell counting (group of lines). In kind it is cell-based. To be noted: for cell growth / proliferation: KRAS or EGFR mutant colon, NSCLC, pancreatic, hepatoma cells, concentration not given.
Source text: as §3

For series [5], the system named is PTEN mutated prostate cancer, small cell lung cancer, and breast cancer. The series is described as above. It is filed as cell-based. To be noted: PTEN mutant lines as a group.
Source text: as §3

The test system of the next series is A549. Nature of the series: Drug treatment on cancer cell lines, cell counting. As to conditions: for effect of combination with HX531 on growth: MEK inhibitor plus HX531; for growth inhibition, single agent: day 3, 6 uM HX531, 10 uM PD98059, 100 nM PD0325901. It is filed as cell-based.
Source text: as §3

The next series deals with HCT116. Kind of series: Drug treatment on cancer cell lines, cell counting. It is filed as cell-based. To be noted: day 3; for growth inhibition, single agent: 6 uM HX531, 10 uM PD98059, 100 nM PD0325901; for effect of combination with HX531 on growth: MEK inhibitor plus 6 uM HX531.
Source text: as §3

For series [6] the following is noted: patients; cited from earlier work.
The test system of the next series is H1755. Kind of series: Drug treatment on cancer cell lines, cell counting. As to conditions: UVI3003 10 uM (FIG. 23). It is filed as cell-based.
Source text: as §3

The test system of a further series is MDA-MB-468. Nature of the series: Drug treatment on cancer cell lines, cell counting. It is filed as cell-based. To be noted: UVI3003 10 uM (FIG. 23).
Source text: as §3

The test system of another series is Saos2. Nature of the series: Drug treatment on cancer cell lines, cell counting. It is filed as cell-based. As to conditions: UVI3003 10 uM (FIG. 23).
Source text: as §3

The subject of another series is normal fibroblasts WI38. Kind of series: Drug treatment on cell lines, cell counting. In kind it is cell-based. As to conditions: UVI3003 10 uM (FIG. 23).
Source text: as §3

Another series deals with SCLC. Nature of the series: Drug treatment on cancer cell lines, cell counting (group of lines). In kind it is cell-based. As to conditions: UVI3003 10 uM (FIG. 23); some PTEN mutated SCLC.
Source text: as §3

In series [7] the test system is H1975. Kind of series: Cell cycle analysis. It is filed as cell-based. As to conditions: EGFR mutant NSCLC, day 3.
The test system of series [8] is PC931019. Nature of the series: Cell cycle analysis. To be noted: KRAS mutant pancreatic cancer, day 3. It is filed as cell-based. As to the method: After drug treatment, cells were collected for cell cycle analysis, RNA isolation, quantitative PCR, western blot, and immunofluorescence. For cell cycle analysis, retinoblastoma, neuroblastoma, lung, pancreatic, and colon cancer cells were collected and dissociated on days 3, 5, 7, 9, 11, and 16 after treatment. Cells were fixed by 70% cold ethanol alcohol while vortex, and put in −20° C. for storage. […] At 24 hours after treatment, 4 ug/ml Aphidicolin was added to cells with compounds for 24 hr. Aphidicolin was removed by centrifugation and PBS wash, and then added to new wells with fresh medium and compounds. Cells were collected and fixed before addition of aphidicolin, immediately after removal of aphidicolin, and every two hours thereafter until 16-18 hours.
The tubes with cells were taken out of the freezer and alcohol was removed by centrifugation. 150 ul of 0.06 mg/ml propidium iodide with 0.1% NF40 was added to the cells, and then 100 ul of 2 mg/ml of RNase was added to the cells. These were mixed well and incubated at 37° C. for 30 min. The cell ploidy according to DNA contents were measured in FACSCalibur with FL3-Width and FL3-Height as the parameter. Flowjo was used for analysis of the cell cycle changes.

Each structure is given as a SMILES string. “Also recorded” adds a separate entry of the source.

With `CC1=C(/C=C/C(C)=C\C=C\C(C)=C\C(=O)O)C(C)(C)CCC1` [9 cis RA, 9-cis-Retinoic acid], in [1] (in vitro), the retinoblastoma cell growth result is given as “suppressed retinoblastoma cell growth”. Also, the cell growth result in the series on RB177 is on record as “suppressed cell growth”.

On to `CCCCCCOc1cc2c(cc1N(C)c1ncc(C(=O)O)cn1)C(C)(C)CCC2(C)C` [PA452], for which the cell growth result with H1650, in the series on H1975 [2], with H3255, with H820, in the series on PC930201 and in the series with PC931019 [3] was “sensitive” in each case. Further, the cell growth entry in the series with PC941102 is “sensitive”; in series [5], “suppress the growth”. Moreover, in [4], the “cell growth / proliferation” value is listed as “efficiently suppress”.

With `COc1cccc(-c2cc(=O)c3ccccc3o2)c1N` [PD98059], the “effect of combination with HX531 on growth” value in the series with A549 is recorded as “synergistic effects”; in the series with HCT116 it was “Synergistic effects”; in the series on PC931019 [3], “same synergistic effects”. Further, the “growth inhibition, single agent” value is reported as “moderate growth inhibition” in the series on A549, “moderate growth inhibition” with HCT116 and “growth inhibition” with PC931019 [3].

`O=C(NOC[C@H](O)CO)c1ccc(F)c(F)c1Nc1ccc(I)cc1F` [PD0325901]: the “effect of combination with HX531 on growth” value is on record as “synergistic effects” in the series on A549, “Synergistic effects” in the series on HCT116 and “same synergistic effects” in the series with PC931019 [3]. In addition, the entries for the “growth inhibition, single agent” value in the series on A549, in the series with HCT116 and in the series on PC931019 [3] were “moderate growth inhibition”, “moderate growth inhibition” and “growth inhibition”, respectively. In addition, the “outcome of clinical trial (toxicity)” value in series [6] was “terminated because of high toxicity in patients”.

Regarding `CCCCCOc1cc2c(cc1-c1cc(/C=C/C(=O)O)ccc1O)C(C)(C)CCC2(C)C` [UVI3003], the cell growth result in the series on H1650, in the series on H1975 [2], in the series with H3255, in the series on H820, in the series on PC930201 and with PC931019 [3] was “sensitive” in each case. Further, the figures for the cell growth result (in the series with PC941102; in series [5]) were “sensitive” and “suppress the growth”, respectively. For the same molecule, the “relative cell number after treatment” value in the series on H1755 is recorded as “sensitive”; in the series with MDA-MB-468 it was “sensitive”; in the series with Saos2, “not sensitive”; in the series on normal fibroblasts WI38 it was “not sensitive”; in series [1] (UVI3003 10 uM (FIG. 23)), “not sensitive”; in series [4] (UVI3003 10 uM (FIG. 23), incl. gastric cancer), “sensitive”. Also, the “relative cell number after treatment” value with SCLC is given as “sensitive”. In series [4], the “cell growth / proliferation” value was “efficiently suppress”. Moreover, the “cell cycle, G1-S transition” value was “inhibited G1-S transition” with H1975 [7] and “similarly sensitive; also recorded: inhibited G1-S transition” in the series with PC931019 [8].
